pKd: −log10 of the molar value.
Legend:
[1] = molecular target: T1, Hp-Fld (H. pylori flavodoxin) (Helicobacter pylori, UniProt O25776); test: biochemical; design: isothermal titration calorimetry of compounds binding to recombinant wild-type Hp-Fld, pH 9
T1 construct: gene fldA; recombinant from pET28a-fldA in E. coli BL21 (DE3); DEAE purification, no tag mentioned; FMN added during lysis, transformed into holoprotein if needed
T1 sequence (O25776 1-164): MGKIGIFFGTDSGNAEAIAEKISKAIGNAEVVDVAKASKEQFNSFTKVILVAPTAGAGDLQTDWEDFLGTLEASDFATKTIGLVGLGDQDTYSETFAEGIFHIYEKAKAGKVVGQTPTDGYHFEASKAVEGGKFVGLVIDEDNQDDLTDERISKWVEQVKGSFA
Description: Isothermal titration calorimetry (ITC) experiments were carried out in an Auto-iTC200 calorimeter (MicroCal, Malvern-Panalytical, Malvern, UK) in order to characterise the affinity of the wild-type Hp-Fld protein and the different mutants N14A, A55W, V113W, Q115W, T116W, K133A and D142Y for the different compounds. Recombinant Hp-Fld at 10–20 µM concentration in 50 mM EPPS buffer, pH 9 (for IV, IV-a, IV-b, IV-c, rac-IV-j, rac-IV-k and rac-IV-l), or in 50 mM Tris-HCl buffer, pH 9 (for IV-d) was titrated with 120–300 µM ligand solutions in the same buffer, prepared from stock compound solutions in 100% DMSO. At the residual DMSO concentration of 2.5% employed in the working solutions, wild-type flavodoxin has been described to be conformationally stable and biochemically active. Thermodynamic parameters of the binding equilibrium were calculated by non-linear least-squares regression analysis considering a single ligand binding site and using the user-defined fitting routines in the MicroCal LLC ITC module from the Origin 7.0 software (Northampton, MA, USA). Interaction between wild-type Hp-Fld and compounds IV, IV-a, IV-b, IV-c, IV-d, rac-IV-j, rac-IV-k and rac-IV-l was evaluated by ITC (Figure S3 and Table S1).

[2] = molecular target: T2, Hp-Fld (H. pylori flavodoxin) (Helicobacter pylori, UniProt O25776, A55W); test: biochemical
T2 construct: gene fldA
From the text: (§1) isothermal titration calorimetry on Hp-Fld (H. pylori flavodoxin)

[3] = molecular target: T3, Hp-Fld (H. pylori flavodoxin) (Helicobacter pylori, UniProt O25776, V113W); test: biochemical
T3 construct: gene fldA
From the text: as §1

[4] = molecular target: T4, Hp-Fld (H. pylori flavodoxin) (Helicobacter pylori, UniProt O25776, T116W); test: biochemical
T4 construct: gene fldA
From the text: as §1

[5] = molecular target: T5, Hp-Fld (H. pylori flavodoxin) (Helicobacter pylori, UniProt O25776, N14A); test: biochemical
T5 construct: gene fldA
From the text: as §1

[6] = molecular target: T6, Hp-Fld (H. pylori flavodoxin) (Helicobacter pylori, UniProt O25776, D142Y); test: biochemical
T6 construct: gene fldA
From the text: as §1

[7] = molecular target: T1, Hp-Fld (H. pylori flavodoxin); test: isothermal titration calorimetry; format: binding

## O=[N+]([O-])c1ccc(SCc2ccc(OCC(O)CO)cc2)c2nonc12 (racemic) [rac-IV-j, rac-3-(4-(((7-Nitrobenzo[c][1,2,5]oxadiazol-4-yl)thio)methyl)phenoxy)propane-1,2-diol]
[1]
  pKd: 5.63

## Nc1ccc(SCc2ccc(OCC(O)CO)cc2)c2nonc12 (racemic) [rac-IV-k, rac-3-(4-(((7-Aminobenzo[c][1,2,5]oxadiazol-4-yl)thio)methyl)phenoxy)propane-1,2-diol]
[1]
  pKd: 5.47

## Nc1ccc([S+]([O-])Cc2ccc(OCC(O)CO)cc2)c2nonc12 (racemic) [rac-IV-l, rac-3-(4-(((7-Aminobenzo[c][1,2,5]oxadiazol-4-yl)sulfinyl)methyl)phenoxy)propane-1,2-diol]
[1]
  pKd: 5.78

## COc1ccc(CSc2ccc(N)c3nonc23)cc1 [IV-a]
[1]
  pKd: 5.28

## COc1ccc(C2(C)SCc3cc(C)c(C)cc3CS2)cc1 [IV-b]
[1]
  pKd: 6.04

## COc1ccc(CSc2cc(Cl)c(N)c3nonc23)cc1 [IV-c]
[2]
  pKd: 5.98
[3]
  pKd: 5.84
[4]
  pKd: 5.84
[5]
  pKd: 5.75
[6]
  pKd: 6.36
[7]; read-out: IV-c / Kd^b
  pKd: 6.17

## COc1ccc(C[S+]([O-])c2ccc(N)c3nonc23)cc1 (stereo not drawn) [IV-d]
[1]
  pKd: 5.81

## COc1ccc(CSc2ccc([N+](=O)[O-])c3nonc23)cc1 [IV]
[2]
  pKd: 5.63
[3]
  pKd: 6.30
[4]
  pKd: 5.96
[5]
  pKd: 6.35
[6]
  pKd: 5.93
[7]; read-out: IV / Kd^b
  pKd: 6.32

Source: paper PMC8467567, “Selective Targeting of Human and Animal Pathogens of the Helicobacter Genus by Flavodoxin Inhibitors: Efficacy, Synergy, Resistance and Mechanistic Studies” (International Journal of Molecular Sciences, 2021)
